Experimental data as given in US20220048873A1, “PESTICIDALLY ACTIVE C[…] AMIDE DERIVATIVES” (SYNGENTA CROP PROTECTION AG, priority 2018, published 2022).

Legend:
Format in all cases: in vivo
[1] = system: Spodoptera littoralis (Egyptian Cotton Leaf Worm); assay: Spodoptera littoralis control on sprayed cotton leaf discs; conditions: foliar, 72 h, application rate of 200 ppm, L1 larvae, 3 days after infestation, read-out: control (at least one of mortality, anti-feedant effect, growth inhibition)
Procedure: Cotton leaf discs were placed onto agar in 24-well microtiter plates and sprayed with aqueous test solutions prepared from 10′000 ppm DMSO stock solutions. After drying the leaf discs were infested with five L1 larvae. The samples were assessed for mortality, anti-feeding effect, and growth inhibition in comparison to untreated samples 3 days after infestation. Control of Spodoptera littoralis by a test sample is given when at least one of the categories mortality, anti-feedant effect, and growth inhibition is higher than the untreated sample.

[2] = system: Plutella xylostella (Diamond Back Moth); assay: Plutella xylostella feeding/contact activity on treated artificial diet; conditions: 192 h, application rate of 200 ppm, eggs, 8 days after infestation
Procedure: 24-well microtiter plates with artificial diet were treated with aqueous test solutions prepared from 10,000 ppm DMSO stock solutions by pipetting. After drying, Plutella eggs were pipetted through a plastic stencil onto a gel blotting paper and the plate was closed with it. The samples were assessed for mortality 8 days after infestation.

[3] = system: Euschistus heros (Neotropical Brown Stink Bug); assay: Euschistus heros feeding/contact activity on sprayed soybean leaves; conditions: 120 h, application rate of 200 ppm, N2 nymphs, 5 days after infestation
Procedure: Soybean leaves on agar in 24-well microtiter plates were sprayed with aqueous test solutions prepared from 10,000 ppm DMSO stock solutions. After drying the leaves were infested with N2 nymphs. The samples were assessed for mortality 5 days after infestation.

COC(=O)OCN(CC1(C#N)CC1)C(=O)c1ccc(C2=NO[C@@](c3cc(Cl)c(F)c(Cl)c3)(C(F)(F)F)C2)cc1C [A1, [(1-cyanocyclopropyl)methyl-[4-[(5S)-5-(3,5-dichloro-4-fluoro-phenyl)-5-(trifluoromethyl)-4H-isoxazol-3-yl]-2-methyl-benzoyl]amino]methyl Methyl Carbonate]
≥ 80%: percent control (mortality, anti-feedant effect or growth inhibition) at 200 ppm [1] | mortality at 200 ppm [2] | mortality at 200 ppm [3]

CCOC(=O)OCN(CC1(C#N)CC1)C(=O)c1ccc(C2=NO[C@@](c3cc(Cl)c(F)c(Cl)c3)(C(F)(F)F)C2)cc1C [A2, [(1-cyanocyclopropyl)methyl-[4-[(5S)-5-(3,5-dichloro-4-fluoro-phenyl)-5-(trifluoromethyl)-4H-isoxazol-3-yl]-2-methyl-benzoyl]amino]methyl ethyl carbonate]
≥ 80%: percent control (mortality, anti-feedant effect or growth inhibition) at 200 ppm [1] | mortality at 200 ppm [2] | mortality at 200 ppm [3]
